Series [1] concerns C3 mRNA. In words: Dose response experiment (DRC), C3 mRNA knockdown in HeLa cells. The format is cell-based, human. The settings on record: 10 concentrations from 100 nM in 6-fold dilution steps. The procedure: The top 12 siRNAs with the best activity at both doses were chosen to be tested in a dose response experiment (DRC). Dose-response experiments were done with siRNA in 10 concentrations transfected in quadruplicates, starting at 100 nM in 6-fold dilutions steps down to ˜10 fM. Mock transfected cells served as control in DRC experiments.
For each well, the target mRNA level was normalized to the respective GAPDH mRNA level. The activity of a given siRNA was expressed as percent mRNA concentration of the respective target (normalized to GAPDH mRNA) in treated cells, relative to the target mRNA concentration (normalized to GAPDH mRNA) averaged across mock transfected wells (DRCs).

The test system of series [2] is C3 mRNA. Kind of series: Dual dose screen, C3 mRNA knockdown in HepG2 cells (bDNA assay). The settings on record: 24 h; for KD @ 0.1 nM: 0.1 nM siRNA; for KD @ 10 nM: 10 nM siRNA. The format is cell-based, human. The procedure: HepG2 cells were obtained from ATCC (ATCC in partnership with LGC Standards, Wesel, Germany, cat. #ATCC-HB-8065) and cultured in MEM Eagle (#M2279, Sigma-Aldrich, Germany), supplemented to contain 10% fetal calf serum (#1248D, Biochrom GmbH, Berlin, Germany), 1× non-essential amino acids (#K0293; Biochrom, Berlin, Germany), 4 mM L-Glutamine (#K0283, Biochrom, Berlin, Germany) and 100 U/ml Penicillin/100 μg/ml Streptomycin (#A2213, Biochrom GmbH, Berlin, Germany) at 37° C. in an atmosphere with 5% C02 in a humidified incubator.
For transfection of HepG2 cells with siRNAs, cells were seeded at a density of 15,000 cells/well into collagen-coated 96-well tissue culture plates (#655150, GBO, Germany). Transfection of siRNA was carried out with Lipofectamine RNAiMax (Invitrogen/Life Technologies, Karlsruhe, Germany) according to manufacturer's instructions for reverse transfection directly after seeding. In this experiment, a dual dose screen was performed with siRNAs in quadruplicates at 10 nM and 0.1 nM, respectively. siRNAs targeting Aha1 served at the same time as an unspecific control for C3 target mRNA expression and as a positive control to analyze transfection efficiency with regards to Aha1 mRNA level. Firefly-Luciferase and Renilla-Luciferase was used as a mock transfection.
After 24 h of incubation with siRNAs, medium was removed and cells were lysed in 150 μl Medium-Lysis Mixture (1 volume lysis mixture, 2 volumes cell culture medium) and then incubated at 53° C. for 30 minutes. bDNA assay (ThermoFisher QuantiGene RNA assays) was performed according to manufacturer's instructions with a probeset directed to human C3 (accession-#NM_000064 between base 106 and base 907 of the sequence) which had been designed by ThermoFisher Scientific, and synthesized by Metabion International AG, Planegg, Germany. Luminescence was read using 1420 Luminescence Counter (WALLAC VICTOR Light, Perkin Elmer, Rodgau-Jugesheim, Germany) following 30 minutes incubation at room temperature in the dark.
Aha1-siRNA served as an unspecific control for C3 mRNA expression and as a positive control to analyze the transfection efficiency by measuring Aha1 mRNA level by hybridization with an Aha1 probeset. The Aha-1 siRNA used had been formerly selected from a big set of candidate siRNAs, and is known to be very active in vitro and in vivo. Transfection efficiency for each 96-well plate was calculated by analysis of Aha1-knock-down with Aha1-siRNA (normalized to GapDH) compared to an unspecific control. […] Transfection efficiency with siAha1 at the 10 nM dose was about 90%, and the transfection efficiency at the 0.5 nM dose was about 85%.
Activity of the siRNAs was measured by the fluorescence or percent mRNA concentration of the respective targets. For each well, the target mRNA level was normalized to the respective GAPDH mRNA level. The activity of a given siRNA was expressed as percent mRNA concentration of the respective target (normalized to GAPDH mRNA) in treated cells, relative to the target mRNA concentration (normalized to GAPDH mRNA) averaged across control wells.

Oligonucleotides are written 5' to 3', each unit as a sugar letter and its base; * is a phosphorothioate linkage, no mark a phosphodiester; rarer units and linkages stand in square brackets, end groups in braces. Plain capitals give the bases only. m = 2'-O-methyl; f = 2'-fluoro

The term IC50 denotes the concentration at which inhibition is half-maximal. Low values mean greater potency in that assay, high ones weaker potency in that assay. As usually defined, the IC80 is the concentration at which the effect reaches the 80% level. Lower therefore signals greater potency.

In the series on C3 mRNA [1], “1 (sense mU*mC*fAmAmCmUfCfAfCmCmUfGmUmAmAmUfAmAmA; antisense mU*fU*mUmAmUmUmAmCmAmGmGmUmGfAmGmUmUmGmA*mU*mU; siRNA) [compound 1]” returned an IC50 of 0.086 nM and an 80% effect concentration (IC80) of 12.7 nM. In the series on C3 mRNA [2], the “KD @ 0.1 nM” value amounted to 68% and the “KD @ 10 nM” value is recorded as 92%.

“10 (sense mU*mC*fAmAmCmUfUfCfCmUmCfCmUmGmCmGfAmAmA; antisense mU*fU*mUmCmGmCmAmGmGmAmGmGmAfAmGmUmUmGmA*mU*mU; siRNA) [compound 10]” registered a half-inhibitory concentration (IC50) in the series on C3 mRNA [1] of 0.172 nM. Also, in the series with C3 mRNA [2], the “KD @ 0.1 nM” value was 84% and the “KD @ 10 nM” value is recorded as 88%.

“16 (sense mC*mA*fAmUmGmAfCfUfUmUmGfAmCmGmAmGfUmAmA; antisense mU*fU*mAmCmUmCmGmUmCmAmAmAmGfUmCmAmUmUmG*mU*mU; siRNA) [compound 16]”: in the series on C3 mRNA [1], the concentration for half-maximal inhibition (IC50) was determined as 0.087 nM and the 80% effect level (IC80) was put at 6.19 nM. Moreover, in the series on C3 mRNA [2], the “KD @ 0.1 nM” value stood at 67% and the “KD @ 10 nM” value is listed as 92%.

For the substance “22 (sense mC*mC*fAmAmCmUfAfCfAmUmGfAmAmCmCmUfAmCmA; antisense mU*fG*mUmAmGmGmUmUmCmAmUmGmUfAmGmUmUmGmG*mU*mU; siRNA) [compound 22]”, the IC50 with C3 mRNA [1] came out at 0.246 nM. Further, in the series on C3 mRNA [2], the “KD @ 0.1 nM” value was found to be 67% and the “KD @ 10 nM” value was 93%.

Turning to “9 (sense mA*mU*fCmGmGmAfUfCfUmUmCfAmCmCmGmUfCmAmA; antisense mU*fU*mGmAmCmGmGmUmGmAmAmGmAfUmCmCmGmAmU*mU*mU; siRNA) [compound 9]”, it took 0.751 nM to reach half-maximal inhibition with C3 mRNA [1] (IC50). Moreover, in the series with C3 mRNA [2], the “KD @ 0.1 nM” value stood at 63% and the “KD @ 10 nM” value is 91%.

On to “4 (sense mU*mC*fCmAmAmGfCfCfUmUmGfGmCmUmCmAfAmUmA; antisense mU*fA*mUmUmGmAmGmCmCmAmAmGmGfCmUmUmGmGmA*mU*mU; siRNA) [compound 4]”, for which, in the series with C3 mRNA [1], half-maximal inhibition (IC50) was put at 0.208 nM and it took 11.8 nM to reach the 80% level (IC80). Besides, in the series on C3 mRNA [2], the “KD @ 0.1 nM” value was determined as 66% and the “KD @ 10 nM” value turned out to be 94%.

The values above are taken from US20230095695A1, “RNAS FOR COMPLEMENT INHIBITION” (Apellis Pharmaceuticals, Inc., priority 2020, published 2023).
